# Experimental data as given in patent US20240239790A1, “7-Morpholino-1,6-Naphthyridin-5-yl Derivatives and Pharmaceutical Compositions Thereof Useful as DNA-PK Inhibitor” (adMare Therapeutics Society, priority 2021, published 2024).
# Where two headings read alike, the source gives them in different places.
# Legend:
# [1] = biological target: T1, DNA-PK phosphorylation at Serine 2056 (Homo sapiens, UniProt P78527); test: Cellular Assay for Inhibition of DNA-PK Phosphorylation at Serine 2056 in FaDu cells (sandwich ELISA, neocarzinostatin); assay type: cell-based; details: pSer2056 DNA-PK, Table 3
# T1 construct: FaDu cells were purchased from ATCC; host or cells: FaDu
# Method in brief: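 FaDu cells pre-treated with compound (0.3% DMSO) for 1 h, then neocarzinostatin 1 μg/mL final added for 2 h to induce DSBs. Protein-normalised lysates read by sandwich ELISA for total and pSer2056 DNA-PK; % inhibition normalised between DMSO and NCS controls, IC50 from variable-slope log(inhibitor) fit.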
# [2] = system: pH2AX induction in HCT116 ATM-/- multicellular tumour spheroids; test: Prodrug Radiation Sensitization in Multicellular Tumour Spheroids, inhibition of pH2AX induction following radiation; assay type: cell-based; details: Homo sapiens, HCT-116, 20 Gy
# Method in brief: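 HCT116 and FaDu spheroids (~0.5 mm diameter), ATM-deficient lines included, in MEM/10% FBS/10 mM glucose at 37 °C under 20% vs 5% oxygen with stirring. Prodrugs 10 μM down to 3.5 nM, 20 Gy irradiation. pDNA-PK (ser 2056) or pH2AX (ser 139) scored in formalin-fixed cryosections 1 or 2 h post-radiation.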
# FaDu cell line = test: Prodrug Activation in Hypoxic Stirred Tumour Cell Suspensions; details: 10 μM, 4 hours
# [3] = 5% O2, inner layers, read-out: Prodrug 5% O2 Inner layers EC50
# [4] = 5% O2, outer layers, read-out: Prodrug 5% O2 Outer layers EC50
# [5] = 20% O2, outer layers, read-out: Prodrug 20% O2 Outer layers EC50
Structure (SMILES),IC50 [1],"Fraction of prodrug converted to active form, Hypoxic 0.2% O2 (FaDu cell line)","Fraction of prodrug converted to active form, Oxic 5% O2 (FaDu cell line)","EC50 [2, 3]","EC50 [2, 4]","EC50 [2, 5]"
"Cn1ncc(CN(c2cnc3cc(N4CCOCC4)nc(O[C@H]4CC[C@@H](Nc5ncc(OCCN6CCOCC6)cn5)CC4)c3c2)S(C)(=O)=O)c1[N+](=O)[O-] [LFA2076, N-[(1-methyl-5-nitro-pyrazol-4-yl)methyl]-N-[7-morpholino-5-[4-[[5-(2-morpholinoethoxy)pyrimidin-2-yl]amino]cyclohexoxy]-1,6-naphthyridin-3-yl]methanesulfonamide]",1 to 10 µM,B (B is 0.05 to 0.15),B (B is 0.05 to 0.15),0.01 to 0.5 µM,0.01 to 0.5 µM,0.01 to 0.5 µM
"Cn1c(COc2cnc3cc(N4CCOCC4)nc(O[C@H]4CC[C@@H](Nc5ccccn5)CC4)c3c2)cnc1[N+](=O)[O-] [LFA2083, N-[4-[[3-[(3-methyl-2-nitro-imidazol-4-yl)methoxy]-7-morpholino-1,6-naphthyridin-5-yl]oxy]cyclohexyl]pyridin-2-amine]",10 to 30 µM,A (A is 0.15 to 1),C (C is 0.02 to 0.05),0.01 to 0.5 µM,1 to 10 µM,1 to 10 µM
"CC(Oc1cnc2cc(N3CCOCC3)nc(O[C@H]3CC[C@@H](Nc4ccccn4)CC3)c2c1)c1cnc([N+](=O)[O-])n1C (stereo partly drawn) [LFA2084, N-[4-[[3-[1-(3-methyl-2-nitro-imidazol-4-yl)ethoxy]-7-morpholino-1,6-naphthyridin-5-yl]oxy]cyclohexyl]pyridin-2-amine]",10 to 30 µM,A (A is 0.15 to 1),C (C is 0.02 to 0.05),0.01 to 0.5 µM,1 to 10 µM,10 to 100 µM
"CN(C)Cc1cnc(N[C@H]2CC[C@@H](Oc3nc(N4CCOCC4)cc4ncc(OCc5cnc([N+](=O)[O-])n5C)cc34)CC2)nc1 [LFA2086, 5-[(dimethylamino)methyl]-N-[4-[[3-[(3-methyl-2-nitro-imidazol-4-yl)methoxy]-7-morpholino-1,6-naphthyridin-5-yl]oxy]cyclohexyl]pyrimidin-2-amine]",10 to 30 µM,D (D is 0 to 0.02),D (D is 0 to 0.02),1 to 10 µM,1 to 10 µM,1 to 10 µM
"CC(Oc1cnc2cc(N3CCOCC3)nc(O[C@H]3CC[C@@H](Nc4ncc(OCCN(C)C)cn4)CC3)c2c1)c1cnc([N+](=O)[O-])n1C (stereo partly drawn) [LFA2087, 5-[2-(dimethylamino)ethoxy]-N-[4-[[3-[1-(3-methyl-2-nitro-imidazol-4-yl)ethoxy]-7-morpholino-1,6-naphthyridin-5-yl]oxy]cyclohexyl]pyrimidin-2-amine]",1 to 10 µM,A (A is 0.15 to 1),D (D is 0 to 0.02),1 to 10 µM,1 to 10 µM,1 to 10 µM
"CN(C)CCOc1cnc(N[C@H]2CC[C@@H](Oc3nc(N4CCOCC4)cc4ncc(OCc5cnc([N+](=O)[O-])n5C)cc34)CC2)nc1 [LFA2088, 5-[2-(dimethylamino)ethoxy]-N-[4-[[3-[(3-methyl-2-nitro-imidazol-4-yl)methoxy]-7-morpholino-1,6-naphthyridin-5-yl]oxy]cyclohexyl]pyrimidin-2-amine]",1 to 10 µM,B (B is 0.05 to 0.15),D (D is 0 to 0.02),1 to 10 µM,1 to 10 µM,1 to 10 µM
"CC(Oc1cnc2cc(N3CCOCC3)nc(OC3CCC(Nc4ncc(OCCN5CCN(C)CC5)cn4)CC3)c2c1)c1cnn(C)c1[N+](=O)[O-] (stereo not drawn) [LFA2089, N-[4-[[3-[1-(1-methyl-5-nitro-pyrazol-4-yl)ethoxy]-7-morpholino-1,6-naphthyridin-5-yl]oxy]cyclohexyl]-5-[2-(4-methylpiperazin-1-yl)ethoxy]pyrimidin-2-amine]",1 to 10 µM,B (B is 0.05 to 0.15),D (D is 0 to 0.02),1 to 10 µM,1 to 10 µM,1 to 10 µM
"CC(NS(=O)(=O)c1cnc2cc(N3CCOCC3)nc(O[C@H]3CC[C@@H](Nc4ncc(C(F)(F)F)cn4)CC3)c2c1)c1cnc([N+](=O)[O-])n1C (stereo partly drawn) [LFA2092, N-[1-(3-methyl-2-nitro-imidazol-4-yl)ethyl]-7-morpholino-5-[4-[[5-(trifluoromethyl)pyrimidin-2-yl]amino]cyclohexoxy]-1,6-naphthyridine-3-sulfonamide]",10 to 30 µM,D (D is 0 to 0.02),D (D is 0 to 0.02),10 to 100 µM,10 to 100 µM,1 to 10 µM
"Cc1cc(C#N)nc(N[C@H]2CC[C@@H](Oc3nc(N4CCOCC4)cc4ncc(OCc5cnc([N+](=O)[O-])n5C)cc34)CC2)n1 [LFA2093, 6-methyl-2-[[4-[[3-[(3-methyl-2-nitro-imidazol-4-yl)methoxy]-7-morpholino-1,6-naphthyridin-5-yl]oxy]cyclohexyl]amino]pyrimidine-4-carbonitrile]",10 to 30 µM,B (B is 0.05 to 0.15),B (B is 0.05 to 0.15),1 to 10 µM,1 to 10 µM,1 to 10 µM

# The next lines start with results.
IC50 [1],"Fraction of prodrug converted to active form, Hypoxic 0.2% O2 (FaDu cell line)","Fraction of prodrug converted to active form, Oxic 5% O2 (FaDu cell line)",Structure (SMILES),"EC50 [2, 3]","EC50 [2, 4]","EC50 [2, 5]"
1 to 10 µM,B (B is 0.05 to 0.15),B (B is 0.05 to 0.15),"CC(c1cnn(C)c1[N+](=O)[O-])N(c1cnc2cc(N3CCOCC3)nc(O[C@H]3CC[C@@H](Nc4ncc(OCCN5CCOCC5)cn4)CC3)c2c1)S(C)(=O)=O (stereo partly drawn) [LFA2077, N-[1-(1-methyl-5-nitro-pyrazol-4-yl)ethyl]-N-[7-morpholino-5-[4-[[5-(2-morpholinoethoxy)pyrimidin-2-yl]amino]cyclohexoxy]-1,6-naphthyridin-3-yl]methanesulfonamide]",0.01 to 0.5 µM,0.5 to 1 µM,0.01 to 0.5 µM
10 to 30 µM,B (B is 0.05 to 0.15),B (B is 0.05 to 0.15),"Cc1cc(C)nc(N[C@H]2CC[C@@H](Oc3nc(N4CCOCC4)cc4ncc(OCc5cnc([N+](=O)[O-])n5C)cc34)CC2)n1 [LFA2081, 4,6-dimethyl-N-[4-[[3-[(3-methyl-2-nitro-imidazol-4-yl)methoxy]-7-morpholino-1,6-naphthyridin-5-yl]oxy]cyclohexyl]pyrimidin-2-amine]",0.5 to 1 µM,1 to 10 µM,1 to 10 µM
10 to 30 µM,A (A is 0.15 to 1),C (C is 0.02 to 0.05),"Cc1cc(C)nc(N[C@H]2CC[C@@H](Oc3nc(N4CCOCC4)cc4ncc(OC(C)c5cnc([N+](=O)[O-])n5C)cc34)CC2)n1 (stereo partly drawn) [LFA2082, 4,6-dimethyl-N-[4-[[3-[1-(3-methyl-2-nitro-imidazol-4-yl)ethoxy]-7-morpholino-1,6-naphthyridin-5-yl]oxy]cyclohexyl]pyrimidin-2-amine]",0.01 to 0.5 µM,1 to 10 µM,1 to 10 µM
1 to 10 µM,B (B is 0.05 to 0.15),D (D is 0 to 0.02),"CC(Oc1cnc2cc(N3CCOCC3)nc(O[C@H]3CC[C@@H](Nc4ncc(CN(C)C)cn4)CC3)c2c1)c1cnc([N+](=O)[O-])n1C (stereo partly drawn) [LFA2085, 5-[(dimethylamino)methyl]-N-[4-[[3-[1-(3-methyl-2-nitro-imidazol-4-yl)ethoxy]-7-morpholino-1,6-naphthyridin-5-yl]oxy]cyclohexyl]pyrimidin-2-amine]",1 to 10 µM,1 to 10 µM,1 to 10 µM
10 to 30 µM,D (D is 0 to 0.02),D (D is 0 to 0.02),"CC(NS(=O)(=O)c1cnc2cc(N3CCOCC3)nc(O[C@H]3CC[C@@H](Nc4ncc(OCCN5CCN(C)CC5)cn4)CC3)c2c1)c1cnc([N+](=O)[O-])n1C (stereo partly drawn) [LFA2090, N-[1-(3-methyl-2-nitro-imidazol-4-yl)ethyl]-5-[4-[[5-[2-(4-methylpiperazin-1-yl)ethoxy]pyrimidin-2-yl]amino]cyclohexoxy]-7-morpholino-1,6-naphthyridine-3-sulfonamide]",10 to 100 µM,10 to 100 µM,10 to 100 µM
10 to 30 µM,D (D is 0 to 0.02),D (D is 0 to 0.02),"Cn1c(CNS(=O)(=O)c2cnc3cc(N4CCOCC4)nc(O[C@H]4CC[C@@H](Nc5ncc(C(F)(F)F)cn5)CC4)c3c2)cnc1[N+](=O)[O-] [LFA2091, N-[(3-methyl-2-nitro-imidazol-4-yl)methyl]-7-morpholino-5-[4-[[5-(trifluoromethyl)pyrimidin-2-yl]amino]cyclohexoxy]-1,6-naphthyridine-3-sulfonamide]",10 to 100 µM,10 to 100 µM,10 to 100 µM
